One series can be described thus: in vitro. The following applies: human, plasma.
The nature of another series: clinical. To be noted: human, in vivo.
Series [1] can be described thus: Ionization constant (pKa). Type of series: physicochemical.
The conditions of series [2]: human, plasma.
Description: Unbound fraction (plasma)

The values below come from ChEMBL document CHEMBL1148291, “Prediction of human volume of distribution values for neutral and basic drugs. 2. Extended data set and leave-class-out statistics” (J Med Chem, 2004).

Description for clinical: Observed volume of distribution
Description for in vitro: Unbound fraction (plasma)

Broadly, the fraction unbound is the share of the substance not bound to proteins or other matrix. Higher therefore signals weak binding. What is called pKa is the negative logarithm of the acid dissociation constant. Consider `O=C1CN=C(c2ccccn2)c2cc(Br)ccc2N1` [BROMAZEPAM], for which the pKa result is “Not Active”. Besides, in the series “in vitro”, the fraction unbound is 0.39.

A word on the Vd: it is the apparent volume that relates the amount in the body to the concentration in plasma or blood. For the molecule `C[C@]12CCC(=O)C=C1CC[C@@H]1[C@@H]2[C@@H](O)C[C@@]2(C)[C@H]1CC[C@]2(O)C(=O)CO` [HYDROCORTISONE], the pKa entry is given as “Not Active”. Further, in the series “clinical”, the distribution volume (Vd) was 0.44 L/kg. The molecule also registered a fraction unbound in the series “in vitro” of 0.09.

`Cc1ccc(O)c(C(CCN(C(C)C)C(C)C)c2ccccc2)c1` (single isomer, unassigned) [TOLTERODINE] gave a pKa in series [1] of 9.8.

For the molecule `C[C@@H](c1ncncc1F)[C@](O)(Cn1cncn1)c1ccc(F)cc1F` [VORICONAZOLE], the pKa result was “Not Active”. Also, in the series “clinical”, the Vd amounted to 4.6 L/kg. This molecule also registered a fraction unbound in “in vitro” of 0.42.

Consider `CNCCC=C1c2ccccc2CCc2ccccc21` [NORTRIPTYLINE], for which the Vd in “clinical” is 19.1 L/kg. Moreover, the pKa in series [1] stood at 10.1.

Consider `CC(CCc1ccccc1)NCC(O)c1ccc(O)c(C(N)=O)c1` (stereo not given) [LABETALOL], for which the pKa in series [1] was 7.4.

`CC(C)NCC(O)c1ccc(NS(C)(=O)=O)cc1` (stereo not given) [SOTALOL] displayed a Vd in the series “clinical” of 0.9 L/kg. The molecule further came in with a pKa in series [1] of 9.76. In the series “in vitro”, this molecule registered a fraction unbound of 1.

Turning to `Cc1cc(=O)n(-c2ccccc2)n1C` [ANTIPYRINE], the pKa result was “Not Active”. In the series “clinical”, the Vd stood at 0.6 L/kg.

Turning to `CC(C)(C)NCC(O)COc1cccc2c1C[C@H](O)[C@H](O)C2` (stereo not given in full) [NADOLOL], the Vd in the series “clinical” worked out at 1.94 L/kg. The Fu in series [2] was 0.7.

As to `Oc1ncnc2[nH]ncc12` [ALLOPURINOL], the pKa entry is given as “Not Active”. The same molecule displayed a distribution volume (Vd) in “clinical” of 0.6 L/kg.

With `CC(=O)O[C@H]1C(=O)[C@@]2(C)[C@H]([C@H](OC(=O)c3ccccc3)[C@]3(O)C[C@H](OC(=O)[C@H](O)[C@@H](NC(=O)c4ccccc4)c4ccccc4)C(C)=C1C3(C)C)[C@]1(OC(C)=O)CO[C@@H]1C[C@@H]2O` [PACLITAXEL], the pKa entry is “Not Active”. In “in vitro”, this molecule came in with a fraction unbound of 0.07.

In turn, `CC(CN(C)C)CN1c2ccccc2CCc2ccccc21` (stereo not given) [TRIMIPRAMINE] returned a Vd in the series “clinical” of 31 L/kg. For the same molecule, the pKa in series [1] amounted to 9.24. This molecule also yielded a fraction unbound in the series “in vitro” of 0.05.

For the molecule `COc1cc2c(c(OC)c1OC)-c1ccc(OC)c(=O)cc1[C@@H](NC(C)=O)CC2` [COLCHICINE], the pKa result is given as “Not Active”. In the series “clinical”, this molecule registered a Vd of 5.2 L/kg.

Consider `Cc1ccccc1OCC(O)CNCCOc1ccc(C(N)=O)cc1` (stereo not given) [TOLAMOLOL], for which the Vd in the series “clinical” worked out at 3.2 L/kg. Also, the pKa in series [1] came to 7.9. In addition, the fraction unbound in “in vitro” worked out at 0.09.

As to `CCN(C)C(=O)Oc1cccc([C@H](C)N(C)C)c1` [RIVASTIGMINE], the Vd in “clinical” stood at 2.2 L/kg. This molecule also registered a pKa in series [1] of 8.99. The fraction unbound in the series “in vitro” came out at 0.6.

Molecule `OC(CNCC(O)C1CCc2cc(F)ccc2O1)C1CCc2cc(F)ccc2O1` (stereo not given) [NEBIVOLOL] came in with a distribution volume (Vd) in the series “clinical” of 11.2 L/kg. Also, the pKa in series [1] came out at 8.22. The molecule also returned a fraction unbound in “in vitro” of 0.02.

In the case of `CNCC[C@@H](Oc1ccccc1C)c1ccccc1` [ATOMOXETINE], the Vd in “clinical” came to 0.85 L/kg. In series [1], this molecule yielded a pKa of 10.1.

Consider `CC(C)(C)NC[C@H](O)COc1nsnc1N1CCOCC1` [TIMOLOL], for which the Vd in “clinical” was found to be 3.5 L/kg. In series [1], the pKa was determined as 8.8.

With `CCN(CC)CCCC(C)Nc1c2ccc(Cl)cc2nc2ccc(OC)cc12` (stereo not given) [QUINACRINE], the Vd in the series “clinical” is 124 L/kg. Moreover, the pKa in series [1] worked out at 7.73.

Regarding `OCCN1CCN(CCCN2c3ccccc3Sc3ccc(Cl)cc32)CC1` [PERPHENAZINE], the Vd in “clinical” is 20 L/kg. The molecule also gave a pKa in series [1] of 8.11. This molecule had a Fu in series [2] of 0.07.

`CN1C(=O)C(O)N=C(c2ccccc2Cl)c2cc(Cl)ccc21` (stereo not given) [LORMETAZEPAM]: the pKa result is reported as “Not Active”. The molecule also showed a Vd in the series “clinical” of 1.5 L/kg.

In the case of `C#CCCCC(=O)c1cc(C(C)(C)C)c(O)c(C(C)(C)C)c1` [TEBUFELONE], the pKa result was “Not Active”. This molecule also came in with a fraction unbound in “in vitro” of 0.0007.

`CN(C)CCCN1c2ccccc2Sc2ccccc21` [PROMAZINE]: in “clinical”, the distribution volume (Vd) is 7.5 L/kg. The same molecule displayed a pKa in series [1] of 9.28. In “in vitro”, this molecule showed a fraction unbound of 0.11.

As for `OC(Cn1cncn1)(Cn1cncn1)c1ccc(F)cc1F` [FLUCONAZOLE], the pKa entry is “Not Active”. The Vd in “clinical” is 0.6 L/kg.

As for `CN1CCN2c3ncccc3Cc3ccccc3C2C1` (stereo not given) [MIRTAZAPINE], in “clinical”, the Vd was determined as 4.8 L/kg. In addition, the pKa in series [1] was 7.3.

`CC(C)NCC(O)COc1ccc(COCCOC(C)C)cc1` (stereo not given) [BISOPROLOL] gave a Vd in “clinical” of 3.31 L/kg. The same molecule gave a pKa in series [1] of 9.57. In the series “in vitro”, this molecule returned a fraction unbound of 0.7.

Molecule `CC(C)NCC(O)COc1ccc(CCOCC2CC2)cc1` (stereo not given) [BETAXOLOL] displayed a Vd in “clinical” of 6.08 L/kg. In addition, the pKa in series [1] worked out at 9.21.

Turning to `C[N+](C)([O-])CCC=C1c2ccccc2CCc2ccccc21` [AMITRIPTYLINOXIDE], the pKa result is recorded as “Not Active”. For the same molecule, the Vd in “clinical” was determined as 1.2 L/kg. The fraction unbound in the series “in vitro” came out at 0.2.
